biological target: T1, hP2X3 (human Purinergic P2X receptors subtype 3), clone B (Homo sapiens, UniProt P56373); test: hP2X3 FLIPR calcium (Fluo-4) antagonist assay, clone B; settings: Human P2X3 FLIPR Clone B IC50 (nM), RLE cells expressing hP2X3 clone B (NM_002559); agonist 500 nM α,β-methylene-ATP
T1 sequence (P56373 1-397): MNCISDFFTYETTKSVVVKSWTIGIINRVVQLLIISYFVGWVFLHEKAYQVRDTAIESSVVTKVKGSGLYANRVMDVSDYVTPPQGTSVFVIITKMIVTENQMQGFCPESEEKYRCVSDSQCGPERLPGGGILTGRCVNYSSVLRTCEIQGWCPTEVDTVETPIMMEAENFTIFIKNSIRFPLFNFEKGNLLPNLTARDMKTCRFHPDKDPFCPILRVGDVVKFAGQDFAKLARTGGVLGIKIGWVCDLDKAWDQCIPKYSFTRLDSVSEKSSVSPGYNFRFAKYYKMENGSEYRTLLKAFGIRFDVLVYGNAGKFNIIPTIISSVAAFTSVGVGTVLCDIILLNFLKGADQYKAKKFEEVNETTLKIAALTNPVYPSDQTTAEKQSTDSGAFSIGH
Protocol: The assay used a calcium indicator dye (Fluo-4) that emits fluorescence, the intensity of which is related to the concentration of calcium that entered the cell when P2X3 was activated and the channel opened. Activation of hP2X3 or rat P2X3 and rat P2X2/3 (from the coexpression of rat P2X3 and rat P2×2) is elicited the by P2X3 agonist α,β methylene-ATP (Sigma M6517), and the resulting fluorescence is measured with a FLIPR II™ instrument (Molecular Devices). Compounds are tested for their ability to inhibit the agonist-induced fluorescent signal.
For the rat P2X2/3 HEK-TREX cells, induction of the rat P2X3 expression is used to generate the rat P2X2/3 channels in HEK-TREX cells and performed by addition of 1 μg/mL tetracycline (Invitrogen) 24 h prior to compounds testing to the HEK-TREX expressing the rat P2X2 constitutively. On the day of the experiment, the cells and test compounds are prepared as follows. […] After preparing the compounds, the medium is removed from the cell plates by inversion. A loading solution of 30 μL assay buffer containing 4 μM of the calcium indicator dye FLUO-4 AM (Molecular Probes F14202) is added to each well using a Multidrop (Labsystems). […] The incubation is terminated by washing the cells four times in assay buffer using a Skatron Embla (Molecular Devices), and 25 μL of assay buffer was left in each well. Cell plates are then transferred to the FLIPR. Experiments are initiated by measuring a baseline fluorescence reading for 10 seconds, followed by the addition of 12.5 μL of cpds and data sampling for a total 280 seconds. The experiments are terminated by addition of 12.5 μL of a reference agonist (500 nM α,β-methylene-ATP) or buffer, producing a final assay volume of 50 μL followed by data sampling for an additional 280 seconds.
In P2X3 antagonist experiments (human and rat assays) data are analysed as normalised maximal peak fluorescence monitored following agonist addition and calculated as percent of relative fluorescent counts from control agonist. The dose-response antagonist inhibition curves are analyzed in a 4-parameter sigmoidal fit using a non-linear curve-fitting program (XLfit version 5.0.6, ID Business Solutions Limited, Guildford, UK).

In order of falling IC50:
1. CC(=O)N1CCN(c2nc(NCc3ccc4c(c3)CCCN4C)c3c(n2)C(=O)N(C(C)C)C3)CC1 [Example 38, 2-(4-acetylpiperazin-1-yl)-6-isopropyl-4-{[(1-methyl-1,2,3,4-tetrahydroquinolin-6-yl)methyl]amino}-5,6-dihydro-7H-pyrrolo[3,4-d]pyrimidin-7-one]  12000 nM
2. CC(=O)N1CCN(c2nc(NCCc3ccc(C)c(C)c3)c3c(n2)C(=O)N(C(C)C)C3)CC1 [Example 55, 2-(4-acetylpiperazin-1-yl)-4-{[2-(3,4-dimethylphenyl)ethyl]amino}-6-isopropyl-5,6-dihydro-7H-pyrrolo[3,4-d]pyrimidin-7-one]  9700 nM
3. CC(=O)N1CCN(c2nc3c(c(N(C)Cc4ccc5ccccc5n4)n2)CN(C(C)C)C3=O)CC1 [Example 249, 2-(4-acetylpiperazin-1-yl)-6-isopropyl-4-(methyl(quinolin-2-ylmethyl)amino)-5H-pyrrolo[3,4-d]pyrimidin-7(6H)-one]  6000 nM
4. CCOc1ccccc1[C@@H](C)Nc1nc(N2CCN(C(C)=O)CC2)nc2c1CN(C(C)C)C2=O [Example 173, (R)-2-(4-acetylpiperazin-1-yl)-4-(1-(2-ethoxyphenyl)ethylamino)-6-isopropyl-5H-pyrrolo[3,4-d]pyrimidin-7(6H)-one]  5400 nM
5. CC(C)N1Cc2c(NCc3cnc4ccccc4c3)nc(N3CCCC3CN3CCOCC3)nc2C1=O (centres unmarked) [Example 212, 6-isopropyl-2-[2-(morpholinomethyl)pyrrolidin-1-yl]-4-(3-quinolylmethylamino)-5H-pyrrolo[3,4-d]pyrimidin-7-one]  4600 nM
6. O=C1c2nc(N3CCOCC3)nc(NC(c3ccccc3)c3ccccc3)c2CN1C1CC1 [Example 74, 4-(Benzhydryl-amino)-6-cyclopropyl-2-morpholin-4-yl-5,6-dihydro-pyrrolo[3,4-d]pyrimidin-7-one]  4300 nM
7. CC(=O)N1CCN(c2nc3c(c(N4CCC4Cc4ccccc4)n2)CN(C(C)C)C3=O)CC1 (centres unmarked) [Example 273, 4-(4-acetylpiperazin-1-yl)-2-(2-benzylazetidin-1-yl)-8-propan-2-yl-3,5,8-triazabicyclo[4.3.0]nona-1,3,5-trien-7-one]  3200 nM
8. CC(C)N1Cc2c(NCc3cnc4ccccc4c3)nc(N3CCNC(=O)C3)nc2C1=O [Example 206, 6-isopropyl-2-(3-oxopiperazin-1-yl)-4-(quinolin-3-ylmethylamino)-5H-pyrrolo[3,4-d]pyrimidin-7(6H)-one]  3200 nM
9. CC(=O)N1CCN(c2nc(NC(Cc3ccccc3)c3ccccc3)c3c(n2)C(=O)N(C(C)C)C3)CC1 (centres unmarked) [Example 88, 2-(4-Acetyl-piperazin-1-yl)-4-(1,2-diphenyl-ethylamino)-6-isopropyl-5,6-dihydro-pyrrolo[3,4-d]pyrimidin-7-one]  1800 nM
10. CC(C)N1Cc2c(NCc3cnc4ccccc4c3)nc(N3CCN4C(=O)CCC4C3)nc2C1=O (centres unmarked) [Example 135, 6-Isopropyl-2-(6-oxohexahydropyrrolo[1,2-a]pyrazin-2(1H)-yl)-4-(quinolin-3-ylmethylamino)-5H-pyrrolo[3,4-d]pyrimidin-7(6M)-one]  870 nM
11. CC(=O)N1CCN(c2nc3c(c(N4CCCC4CCc4ccccc4)n2)CN(C(C)C)C3=O)CC1 (centres unmarked) [Example 271, 4-(4-acetylpiperazin-1-yl)-2-(2-phenethylpyrrolidin-1-yl)-8-propan-2-yl-3,5,8-triazabicyclo[4.3.0]nona-1,3,5-trien-7-one]  870 nM
12. CC(=O)N1CCN(c2nc(NCc3noc(C4CCC4)n3)c3c(n2)C(=O)N(C(C)C)C3)CC1 [Example 278, 4-(4-acetylpiperazin-1-yl)-2-[(5-cyclobutyl-1,2,4-oxadiazol-3-yl)methylamino]-8-propan-2-yl-3,5,8-triazabicyclo[4.3.0]nona-1,3,5-trien-7-one]  750 nM
13. CC(C)N1Cc2c(NCc3cnc4ccccc4c3)nc(N3CCC(F)(F)C3)nc2C1=O [Example 216, 2-(3,3-difluoropyrrolidin-1-yl)-6-isopropyl-4-(3-quinolymethylamino)-5H-pyrrolo[3,4-d]pyrimidin-7-one]  680 nM
14. CC(=O)N1CCN(c2nc(N[C@@H]3CCC[C@H]3c3ccc(Cl)cc3)c3c(n2)C(=O)N(C(C)C)C3)CC1 (racemic) [Example 33, 2-(4-acetylpiperazin-1-yl)-4-{[trans-2-(4-chlorophenyl)cyclopentyl]amino}-6-isopropyl-5,6-dihydro-7H-pyrrolo[3,4-d]pyrimidin-7-one]  580 nM
15. CCC(Nc1nc(N2CCN(C(C)=O)CC2)nc2c1CN(C(C)C)C2=O)c1ccc(C(F)(F)F)cc1 (centres unmarked) [Example 32, 2-(4-acetylpiperazin-1-yl)-6-isopropyl-4-({1-[4-(trifluoromethyl)phenyl]propyl}amino)-5,6-dihydro-7H-pyrrolo[3,4-d]pyrimidin-7-one]  430 nM
16. CC(C)N1Cc2c(NC(C)(C)Cc3ccc(Cl)cc3)nc(N3CCNC(=O)CC3)nc2C1=O [Example 68, 4-{[2-(4-chlorophenyl)-1,1-dimethylethyl]amino}-6-isopropyl-2-(5-oxo-1,4-diazepan-1-yl)-5,6-dihydro-7H-pyrrolo[3,4-d]pyrimidin-7-one]  350 nM
17. CCOc1ccc(CC2CCCN2c2nc(N3CCN(C(C)=O)CC3)nc3c2CN(C(C)C)C3=O)cc1 (centres unmarked) [Example 289, 2-(4-acetylpiperazin-1-yl)-4-[2-[(4-ethoxyphenyl)methyl]pyrrolidin-1-yl]-6-isopropyl-5H-pyrrolo[4,3-e]pyrimidin-7-one]  330 nM
18. CCC(=O)N1CCN(c2nc(NC(c3ccccc3)c3ccccc3)c3c(n2)C(=O)N(C(C)C)C3)CC1 [Example 87, 4-(Benzhydryl-amino)-6-isopropyl-2-(4-propionyl-piperazin-1-yl)-5,6-dihydro-pyrrolo[3,4-d]pyrimidin-7-one]  240 nM
19. CC(=O)N1CCN(c2nc(NCc3cc(-c4ccccc4)nn3C)c3c(n2)C(=O)N(C(C)C)C3)CC1 [Example 154, 4-(4-acetylpiperazin-1-yl)-2-[(2-methyl-5-phenyl-pyrazol-3-yl)methylamino]-8-propan-2-yl-3,5,8-triazabicyclo[4.3.0]nona-1,3,5-trien-7-one]  160 nM
20. CC(=O)N1CCN(c2nc3c(c(N4CCCC4c4ccc5ncccc5c4)n2)CN(C(C)C)C3=O)CC1 (single isomer, unassigned) [Example 285, 4-(4-acetylpiperazin-1-yl)-8-propan-2-yl-2-(2-quinolin-6-ylpyrrolidin-1-yl)-3,5,8-triazabicyclo[4.3.0]nona-1,3,5-trien-7-one]  100 nM
21. CC(=O)N1CCN(c2nc(N[C@H](C)c3ccc(C)c(C)c3)c3c(n2)C(=O)N(C(C)C)C3)CC1 [Example 170, (R)-2-(4-acetylpiperazin-1-yl)-4-(1-(3,4-dimethylphenyl)ethylamino)-6-isopropyl-5H-pyrrolo[3,4-d]pyrimidin-7(6H)-one]  96 nM
22. CC(=O)N1CCN(c2nc(N[C@H](C)c3ccc4c(c3)CCC(C)(C)O4)c3c(n2)C(=O)N(C(C)C)C3)CC1 [Example 169, (R)-2-(4-acetylpiperazin-1-yl)-4-(1-(2,2-dimethylchroman-6-yl)ethylamino)-6-isopropyl-5H-pyrrolo[3,4-d]pyrimidin-7(6H)-one]  51 nM
23. CC(=O)N1CCN(c2nc(N[C@H](C)c3ccc4c(c3)CCC4)c3c(n2)C(=O)N(C(C)C)C3)CC1 [Example 172, (R)-2-(4-acetylpiperazin-1-yl)-4-(1-(2,3-dihydro-1H-inden-5-yl)ethylamino)-6-isopropyl-5H-pyrrolo[3,4-d]pyrimidin-7(6H)-one]  44 nM
